The values below come from patent publication US9790230B2 (Hoffmann-La Roche Inc., priority 2015, dated 2017).

SMILES strings stand for the structures. Read-outs that look alike come from different tables or passages of the source.

One assay has as its target rat TAAR1 (Rattus norvegicus (Rat), UniProt Q923Y9). Briefly: Radioligand binding assay on rat TAAR1.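 Further: membranes from HEK293 cells stably transfected with rat TAAR1, tritiated TAAR1 radioligand, 1 h incubation at 4 °C, nonspecific binding determined with excess unlabeled ligand.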
For the next assay, the target named is mouse TAAR1 (Mus musculus (Mouse), UniProt Q923Y8). Put plainly: Radioligand binding assay on mouse TAAR1.
Setting [1] is: read-out: Ki (μM) rat, rat TAAR1, HEK-293 membranes, second value of cell mouse/rat.
The mark [2] stands for this setting: read-out: Ki (μM) mouse, mouse TAAR1, HEK-293 membranes, first value of cell mouse/rat.

mouse TAAR1, sequence (Q923Y8 whole entry): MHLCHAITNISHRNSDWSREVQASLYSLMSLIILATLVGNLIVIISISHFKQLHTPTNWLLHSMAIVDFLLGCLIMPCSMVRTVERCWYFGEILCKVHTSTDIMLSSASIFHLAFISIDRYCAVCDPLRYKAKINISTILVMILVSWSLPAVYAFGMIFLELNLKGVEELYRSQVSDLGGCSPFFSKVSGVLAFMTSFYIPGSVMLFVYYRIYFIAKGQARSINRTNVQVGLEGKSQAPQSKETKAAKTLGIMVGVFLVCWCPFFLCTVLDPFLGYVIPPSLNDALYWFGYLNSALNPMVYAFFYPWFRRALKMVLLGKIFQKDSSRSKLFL
rat TAAR1, sequence (Q923Y9 whole entry): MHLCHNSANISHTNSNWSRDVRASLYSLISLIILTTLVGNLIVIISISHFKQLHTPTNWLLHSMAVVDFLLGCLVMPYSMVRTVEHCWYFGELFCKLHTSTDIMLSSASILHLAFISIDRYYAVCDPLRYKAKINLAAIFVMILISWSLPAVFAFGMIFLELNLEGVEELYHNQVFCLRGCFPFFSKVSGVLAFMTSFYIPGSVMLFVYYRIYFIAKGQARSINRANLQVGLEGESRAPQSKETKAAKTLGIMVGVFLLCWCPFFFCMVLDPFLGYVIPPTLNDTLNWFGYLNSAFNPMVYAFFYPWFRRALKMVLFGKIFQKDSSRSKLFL
Protocol for mouse TAAR1: Radioligand Binding Assay on Mouse TAAR1
(§1) Membrane Preparation and Radioligand Binding.
HEK-293 cells stably expressing mouse TAAR1 were maintained at 37° C. and 5% CO2 in DMEM high glucose medium, containing fetal calf serum (10%, heat inactivated for 30 min at 56° C.), penicillin/streptomycin (1%), and 375 μg/ml geneticin (Gibco). Cells were released from culture flasks using trypsin/EDTA, harvested, washed twice with ice-cold PBS (without Ca^2+ and Mg^2+), pelleted at 1'000 rpm for 5 min at 4° C., frozen and stored at −80° C. Frozen pellets were suspended in 20 ml HEPES-NaOH (20 mM, pH 7.4) containing 10 mM EDTA and homogenized with a Polytron (PT 6000, Kinematica) at 14'000 rpm for 20 s. The homogenate was centrifuged at 48'000×g for 30 min at 4° C. Subsequently, the supernatant was removed and discarded, and the pellet resuspended in 20 ml HEPES-NaOH (20 mM, pH 7.4) containing 0.1 mM EDTA using the Polytron (20 s at 14'000 rpm). This procedure was repeated and the final pellet resuspended in HEPES-NaOH containing 0.1 mM EDTA and homogenized using the Polytron. Typically, aliquots of 2 ml membrane portions were stored at −80° C. With each new membrane batch the dissociation constant (Kd) was determined via a saturation curve. The TAAR1 radioligand ^3[H]—(S)-4-[(ethyl-phenyl-amino)-methyl]-4,5-dihydro-oxazol-2-ylamine (described in WO 2008/098857) was used at a concentration equal to the calculated Kd value, that was usually around 0.7 nM, resulting in the binding of approximately 0.5% of the radioligand and a specific binding representing approximately 70% of the total binding. Nonspecific binding was defined as the amount of ^3[H]—(S)-4-[(ethyl-phenyl-amino)-methyl]-4,5-dihydro-oxazol-2-ylamine bound in the presence of 10 M unlabeled ligand. All compounds were tested at a broad range of concentrations (10 pM to 10 μM) in duplicates. […] The 96 deep well plates were incubated for 1 hr at 4° C. Incubations were terminated by rapid filtration through Unifilter-96 plates (Packard Instrument Company) and glass filters GF/C (Perkin Elmer) presoaked for 1 hr in polyethylenimine (0.3%) and washed 3 times with 1 ml of cold binding buffer. After addition of 45 μl of Microscint 40 (PerkinElmer) the Unifilter-96 plate was sealed and after 1 hr the radioactivity counted using a TopCount Microplate Scintillation Counter (Packard Instrument Company).
Protocol for rat TAAR1: as §1
HEK-293 cells stably expressing rat TAAR1 were maintained at 37° C. and 5% CO2 in DMEM high glucose medium, containing fetal calf serum (10%, heat inactivated for 30 min at 56° C.), penicillin/streptomycin (1%), and 375 μg/ml geneticin (Gibco). Cells were released from culture flasks using trypsin/EDTA, harvested, washed twice with ice-cold PBS (without Ca^2+ and Mg^2+), pelleted at 1'000 rpm for 5 min at 4° C., frozen and stored at −80° C. Frozen pellets were suspended in 20 ml HEPES-NaOH (20 mM, pH 7.4) containing 10 mM EDTA and homogenized with a Polytron (PT 6000, Kinematica) at 14′000 rpm for 20 s. The homogenate was centrifuged at 48'000×g for 30 min at 4° C. Subsequently, the supernatant was removed and discarded, and the pellet resuspended in 20 ml HEPES-NaOH (20 mM, pH 7.4) containing 0.1 mM EDTA using the Polytron (20 s at 14'000 rpm). This procedure was repeated and the final pellet resuspended in HEPES-NaOH containing 0.1 mM EDTA and homogenized using the Polytron. Typically, aliquots of 2 ml membrane portions were stored at −80° C. With each new membrane batch the dissociation constant (Kd) was determined via a saturation curve. […] Nonspecific binding was defined as the amount of 3 [H]—(S)-4-[(ethyl-phenyl-amino)-methyl]-4,5-dihydro-oxazol-2-ylamine bound in the presence of 10 M unlabeled ligand. All compounds were tested at a broad range of concentrations (10 pM to 10 μM) in duplicates. […] The 96 deep well plates were incubated for 1 hr at 4° C. Incubations were terminated by rapid filtration through Unifilter-96 plates (Packard Instrument Company) and glass filters GF/C (Perkin Elmer) presoaked for 1 hr in polyethylenimine (0.3%) and washed 3 times with 1 ml of cold binding buffer. After addition of 45 μl of Microscint 40 (PerkinElmer) the Unifilter-96 plate was sealed and after 1 hr the radioactivity counted using a TopCount Microplate Scintillation Counter (Packard Instrument Company).

As to `CCc1n[nH]c(C(=O)Nc2ccc([C@H]3O[C@@H]4CN[C@H]3C4)cc2)c1C` [Example 50, 3-Ethyl-4-methyl-N-[4-[(1S,3R,4S)-2-oxa-5-azabicyclo[2.2.1]heptan-3-yl]phenyl]-1H-pyrazole-5-carboxamide], the Ki was 0.344 µM on rat TAAR1 and 0.0128 µM on mouse TAAR1.
As for `CCCc1n[nH]c(C(=O)Nc2ccc([C@H]3O[C@@H]4CN[C@H]3C4)cc2)c1Cl` [Example 49, 4-Chloro-N-[4-[(1S,3R,4S)-2-oxa-5-azabicyclo[2.2.1]heptan-3-yl]phenyl]-3-propyl-1H-pyrazole-5-carboxamide], the results for the inhibition constant (Ki) at rat TAAR1 and on mouse TAAR1 were 0.037 µM and 0.0044 µM, respectively.
Taken in the same sequence, the figures for `Cc1n[nH]c(C(=O)Nc2ccc([C@H]3O[C@@H]4CN[C@H]3C4)cc2)c1Cl` [Example 46, 4-Chloro-3-methyl-N-[4-[(1S,3R,4S)-2-oxa-5-azabicyclo[2.2.1]heptan-3-yl]phenyl]-1H-pyrazole-5-carboxamide] were 0.673 µM and 0.0098 µM.
As for `O=C(NCc1ccc(Cl)cc1)c1ccc([C@@H]2O[C@H]3CN[C@@H]2C3)cc1` [Example 97, N-[(4-Chlorophenyl)methyl]-4-[(1R,3S,4R)-2-oxa-5-azabicyclo[2.2.1]heptan-3-yl]benzamide], the inhibition constant (Ki) on rat TAAR1 was greater than 1.45 µM; on mouse TAAR1 it was 0.0511 µM.
For `O=C(Nc1ccc(Cl)cc1)c1ccc([C@@H]2O[C@H]3CN[C@@H]2C3)cc1` [Example 85], the Ki at rat TAAR1 was found to be 1.08 µM; on mouse TAAR1, 0.0164 µM.
Take `O=C(COCCC(F)(F)F)Nc1ccc([C@@H]2O[C@H]3CN[C@@H]2C3)cc1` [Example 90, N-[4-[(1R,3S,4R)-2-Oxa-5-azabicyclo[2.2.1]heptan-3-yl]phenyl]-2-(3,3,3-trifluoropropoxy)acetamide]: the results for the inhibitory constant (Ki) at rat TAAR1 and on mouse TAAR1 were 0.398 µM and 0.015 µM, respectively.
`O=C(COCCC(F)(F)F)Nc1ccc([C@H]2O[C@@H]3CN[C@H]2C3)cc1` [Example 70, N-[4-[(1S,3R,4S)-2-Oxa-5-azabicyclo[2.2.1]heptan-3-yl]phenyl]-2-(3,3,3-trifluoropropoxy)acetamide]: the Ki at rat TAAR1 amounted to 0.512 µM; on mouse TAAR1, 0.0094 µM.
As for `FC(F)(F)c1cnc(Nc2ccc([C@H]3O[C@@H]4CN[C@H]3C4)cc2)cn1` [Example 22, N-[4-[(1S,3R,4S)-2-Oxa-5-azabicyclo[2.2.1]heptan-3-yl]phenyl]-5-(trifluoromethyl)pyrazin-2-amine], the figures for the Ki at rat TAAR1 and at mouse TAAR1 were 0.34 µM and 0.0076 µM, respectively.
With `Fc1ccccc1[C@@H]1O[C@H]2CN[C@@H]1C2` [Example 106, (1R,3S,4R)-3-(2-Fluorophenyl)-2-oxa-5-azabicyclo[2.2.1]heptane], the Ki amounted to 0.836 µM on rat TAAR1 and 1.03 µM at mouse TAAR1.
For `O=C(Nc1ccc(Cl)cc1)Nc1ccc([C@H]2O[C@@H]3CN[C@H]2C3)cc1` [Example 33, 1-(4-Chlorophenyl)-3-[4-[(1S,3R,4S)-2-oxa-5-azabicyclo[2.2.1]heptan-3-yl]phenyl]urea], in that order: 0.0116 µM and 0.0035 µM.
For `CCc1ncc(C(=O)Nc2ccc([C@H]3O[C@@H]4CN[C@H]3C4)cc2)cn1` [Example 34, 2-Ethyl-N-[4-[(1S,3R,4S)-2-oxa-5-azabicyclo[2.2.1]heptan-3-yl]phenyl]pyrimidine-5-carboxamide], in that order: 0.457 µM and 0.0563 µM.
As to `CC(C)c1n[nH]c(C(=O)Nc2ccc([C@@H]3O[C@H]4CN[C@@H]3C4)cc2)c1F` [Example 103, 4-Fluoro-3-isopropyl-N-[4-[(1R,3S,4R)-2-oxa-5-azabicyclo[2.2.1]heptan-3-yl]phenyl]-11H-pyrazole-5-carboxamide], the results for the Ki at rat TAAR1 (setting [1]) and on mouse TAAR1 (setting [2]) were 0.0405 µM and 0.0096 µM, respectively.
As for `O=C(Nc1ccc(Cl)cc1)Nc1cccc([C@@H]2O[C@H]3CN[C@@H]2C3)c1` [Example 4, 1-(4-Chlorophenyl)-3-[3-[(1R,3S,4R)-2-oxa-5-azabicyclo[2.2.1]heptan-3-yl]phenyl]urea], the inhibitory constant (Ki) at rat TAAR1 worked out at 0.0102 µM; on mouse TAAR1, 1.28 µM.
Taken in the same sequence, the figures for `CCCc1n[nH]c(C(=O)Nc2ccc([C@@H]3O[C@H]4CN[C@@H]3C4)cc2)c1F` [Example 78, 4-Fluoro-N-[4-[(1R,3S,4R)-2-oxa-5-azabicyclo[2.2.1]heptan-3-yl]phenyl]-3-propyl-1H-pyrazole-5-carboxamide] were 0.103 µM and 0.0042 µM.
Taken in the same sequence, the figures for `O=C(Nc1ccc(Br)cc1)c1ccc([C@@H]2O[C@H]3CN[C@@H]2C3)cc1` [Example 86, N-(4-Bromophenyl)-4-[(1R,3S,4R)-2-oxa-5-azabicyclo[2.2.1]heptan-3-yl]benzamide] were 0.809 µM and 0.0102 µM.
In the case of `O=C(Nc1ccc([C@H]2O[C@@H]3CN[C@H]2C3)cc1)c1ccc(OCC(F)(F)F)nc1` [Example 16, N-[4-[(1S,3R,4S)-2-Oxa-5-azabicyclo[2.2.1]heptan-3-yl]phenyl]-6-(2,2,2-trifluoroethoxy)pyridine-3-carboxamide], the Ki was found to be 0.142 µM on rat TAAR1 and 0.0118 µM at mouse TAAR1.
In the case of `FC(F)(F)Oc1ccc(CNc2ccc([C@H]3O[C@@H]4CN[C@H]3C4)cc2)cc1` [Example 52, 4-[(1S,3R,4S)-2-Oxa-5-azabicyclo[2.2.1]heptan-3-yl]-N-[[4-(trifluoromethoxy)phenyl]methyl]aniline], the values for the Ki at rat TAAR1 and on mouse TAAR1 were 0.194 µM and 0.0043 µM, respectively.
`CCCCc1cc(C(=O)Nc2ccc([C@@H]3O[C@H]4CN[C@@H]3C4)cc2)[nH]n1` [Example 93, 3-Butyl-N-[4-[(1R,3S,4R)-2-oxa-5-azabicyclo[2.2.1]heptan-3-yl]phenyl]-1H-pyrazole-5-carboxamide]: the Ki stood at 0.0803 µM at rat TAAR1 and 0.0042 µM at mouse TAAR1.
For `CCc1n[nH]c(C(=O)Nc2ccc([C@@H]3O[C@H]4CN[C@@H]3C4)cc2)c1Cl` [Example 76, 4-Chloro-3-ethyl-N-[4-[(1R,3S,4R)-2-oxa-5-azabicyclo[2.2.1]heptan-3-yl]phenyl]-1H-pyrazole-5-carboxamide], the inhibition constant (Ki) came out at 0.0842 µM at rat TAAR1 and 0.0047 µM on mouse TAAR1.
Taken in the same sequence, the figures for `FC(F)(F)COc1nccc(Nc2ccc([C@@H]3O[C@H]4CN[C@@H]3C4)cc2)n1` [Example 83, N-[4-[(1R,3S,4R)-2-Oxa-5-azabicyclo[2.2.1]heptan-3-yl]phenyl]-2-(2,2,2-trifluoroethoxy)pyrimidin-4-amine] were 0.19 µM and 0.0097 µM.
For `O=C(COCC(F)(F)F)Nc1ccc([C@H]2O[C@@H]3CN[C@H]2C3)cc1` [Example 66, N-[4-[(1S,3R,4S)-2-Oxa-5-azabicyclo[2.2.1]heptan-3-yl]phenyl]-2-(2,2,2-trifluoroethoxy)acetamide], in that order: 3.96 µM and 0.0123 µM.
As to `CC(C)c1n[nH]c(C(=O)Nc2ccc([C@@H]3O[C@H]4CN[C@@H]3C4)cc2)c1Cl` [Example 102, 4-Chloro-3-isopropyl-N-[4-[(1R,3S,4R)-2-oxa-5-azabicyclo[2.2.1]heptan-3-yl]phenyl]-11H-pyrazole-5-carboxamide], the inhibition constant (Ki) at rat TAAR1 (setting [1]) is 0.0142 µM; at mouse TAAR1 (setting [2]), 0.0089 µM.
As to `CCOc1ccc(C(=O)Nc2ccc([C@@H]3O[C@H]4CN[C@@H]3C4)cc2)cn1` [Example 13, 6-Ethoxy-N-[4-[(1R,3S,4R)-2-oxa-5-azabicyclo[2.2.1]heptan-3-yl]phenyl]pyridine-3-carboxamide], the Ki was determined as 346 µM at rat TAAR1 and 0.0063 µM on mouse TAAR1.
